Read-outs that look alike come from different tables or passages of the source.
Columns and labels:
[1] = Affinity biosensor binding with LPS
Description: Immobilization of lipid A and CpG DNA: Using Optically-Based Affinity Biosensors technology, Lipid A, the biologic active centres of LPS, and CpG DNA were respectively, immobilized on the reacting surfaces of cuvettes in an IAsys plus affinity biosensor according to the manufacturer's instructions of IAsys Affinity Sensor. The end of hydrophobic side chain of lipid A was immobilized on cuvette with hydrophobic surface, and the phosphate group (active group of lipid A) at the other end was floating and exposing to the outside, which act as target spot of binding with active constituents for disease treatment in traditional Chinese medicine. The active constituents in solution were binded to lipid A through electrostatic interaction. Biotinylated CpG DNA was immobilized on the surface of a biotin cuvette by linking to avidin, which had been coated on the surface of a biotin cuvette, and then the unlabeled group of CpG DNA was floating and exposing to the outside, which act as target spot of binding with active constituents for disease treatment in traditional Chinese medicine. The active constituents in solution were binded to CpG DNA through the electrostatic interaction and embodiment.
Detection of the aqueous herbal extract: The crude drugs of 114 traditional Chinese herbs were pulverized. 1 g of each powder was added with 10 ml distilled water, boiled at 100° C. for 1.5 h, centrifuged at 4000 rpm for 20 min, filtrated and then collected the supernatant. 5 μl of aqueous herbal extracts of each herb were used to detect their binding with lipid A or CpG DNA. […]
9.1 Methods: KB was separately diluted with PBS to make solutions of 0.25, 0.5, 1, 2 and 4 μM; 5 μl of each solution was separately loaded; binding reaction of KB of various concentration with LPS and CpG DNA was assayed according to the methods in embodiment 1. The dissociation equilibrium constant (KD) of KB with LPS and CpG DNA was calculated using the IAsys FASTfit software. […]

RAW264.7 cells = assay: Western blot of IκB-α and p38 phosphorylation in RAW264.7 cells; format: cell-based, murine
Protocol: Extraction of cytoplasmic protein: RAW264.7 cells were diluted to 1×10^6/ml in DMEM supplemented with 10% (v/v) NCS; 5 ml of the above suspension was transferred into cell culture bottles and cultured at 37° C. in a 5% CO2 humidified incubator for 4 h; a preliminary experiment was first performed, in which RAW264.7 cells were stimulated by LPS (100 ng/ml), CpG DNA (10 μg/ml), TNF-α (50 ng/ml) or IL-1β (50 ng/ml) for 15, 30, 45 and 60 min respectively; for the purpose of formal experiment a medium group, a KB control group, stimulation group (LPS, CpG DNA, TNF-α or IL-1β) and a KB treatment group (LPS+KB group, CpG DNA+KB group, TNF-α+KB group and IL-1β+KB group) were established; no reagent was added in medium group; KB control group was only added with KB (200 μM); stimulation group was added with LPS (100 ng/ml), CpG DNA (10 μg/ml), TNF-α (50 ng/ml) or IL-1β (50 ng/ml); KB treatment group was added with KB (100, 200 μM) in the meantime of adding LPS, CpG DNA, TNF-α or IL-1β; the duration time of cell culture was based on the preliminary experiment (30 min); cells were washed with PBS and centrifuged to collect cells; supernatant was sucked and discarded; the cell pellet was collected for further experiment; each 20 μl cell pellet was added with 200 μl cytoplasm protein extraction reagents supplemented with PMSF, shook vigorously for 5 seconds to completely suspend and disperse the cell pellet, chilled for 10 to 15 min in an ice bath, centrifuged at 12,000 g at 4° C. for 5 min; the supernatant was instantly transferred into a precooled plastic tube, which was the cytoplasmic protein obtained by extraction;
(3) Sample preparation: Protein sample was mixed with 5× concentrated loading buffer in proportion of 4:1, and denatured at 100° C. for 5 min;
(5) Loading: Sample loading volume was adjusted according to protein concentration to ensure 20 μg protein content of each sample; samples were loaded with microsyringe (5 μl protein molecular weight marker were loaded); […]

[2] = KB 100 and 200 μM, 30 min, western blot

Molecule | affinity with LPS ([1]; 4 μM solution, 5 μl loaded) | Kd ([1]; KB 0.25-4 μM, IAsys FASTfit, read-out: dissociation equilibrium constant (KD) with LPS) [nM] | Kd ([1]; with LPS, read-out: dissociation equilibrium constant (KD = kass/kdiss)) [nM] | expression of IκB-α and p-IκB-α, KB alone (RAW264.7 cells; KB 200 μM alone vs medium group) | degradation of IκB-α and up-regulated expression of p-IκB-α induced by LPS and CpG DNA (RAW264.7 cells; [2]) | p-p38 expression induced by LPS and CpG DNA (RAW264.7 cells; [2])
polymyxin B [PMB, reference compound] | high affinity | – | – | – | – | –
NCCCN(CCCCNCCCNC(=O)CCc1ccc(O)c(O)c1)C(=O)CCc1ccc(O)c(O)c1 [KB, Kukoamine B] | – | 1240 | 1240 | had no influence | both were significantly inhibited | significantly inhibited

Reference: patent US10039729B2, “Use of kukoamine A and kukoamine B” (Tianjin Chase Sun Pharmaceutical Co., Ltd., priority 2010, dated 2018)
